# Columns and labels:
# COPD patients [1] = test: Re-analysis of ISOLDE 3-year clinical study: rate of decline of FEV1 by baseline blood eosinophil count; assay type: in vivo, human; settings: 500 mcg twice daily
# Source text: Methods: The results of ISOLDE (Burge P S et al BMJ 2000; 320:1297-303), a 3-year study of the effects of fluticasone propionate (FP) 500 mcg twice daily on rate of decline of FEV1 in well-characterised COPD patients were re-analysed by baseline blood eosinophil count (≥2%, <2%).
# COPD patients [2] = settings: pre-specified analysis of ISOLDE, all patients; 500 mcg twice daily, 3 years; cited from earlier work
compound,measurement,setting,value
"CCC(=O)O[C@]1(C(=O)SCF)[C@H](C)C[C@H]2[C@@H]3C[C@H](F)C4=CC(=O)C=C[C@]4(C)[C@@]3(F)[C@@H](O)C[C@@]21C [FP, fluticasone propionate]",difference in rate of decline of FEV1 vs. placebo,"COPD patients [1]; patients with eosinophil count <2%, 3 years",no difference
same,slowing of the rate of decline of lung function compared with placebo,"COPD patients [1]; patients with eosinophil count ≥2%, p=0.001",38 mL per year
same,effect on the rate of decline of FEV1 vs. placebo,COPD patients [2],no effect

# Reference: US10987363B2, “Fluticasone furoate in the treatment of COPD” (GLAXOSMITHKLINE INTELLECTUAL PROPERTY DEVELOPMENT LIMITED, priority 2014, dated 2021)
